Data reported in US20050214310A1 (priority 2004, published 2005).
Like-named read-outs stand apart in the source and are kept apart here.

Tested on: H3677 melanoma cell line
Experiment: cells
Assay type: cell-based
[1] = read-out: IC50 (μM) with L49-βL

**Q.** How did the IC50 (Homo sapiens, H3677) turn out when N[C@@H](Cc1ccc(N(CCCl)CCCl)cc1)C(=O)O [melphalan, 4[bis(2 chloroethyl)amino]-L-phynelalanine, reference compound] was run?
**A.** Its IC50 is 2.8 µM.

**Q.** C-Mel Cyclobutyl Ester was tested. Which IC50 (read-out: IC50 (μM) with βL) did it give?
**A.** The IC50 was 0.8 µM.

**Q.** And the IC50 (read-out: IC50 (μM) without βL)?
**A.** The IC50 was 10 µM.

**Q.** What does the source list for C-Mel Cyclohexyl Ester?
**A.** IC50 [1]: 0.23 µM; IC50 (read-out: IC50 (μM) with βL): 0.083 µM; IC50 (read-out: IC50 (μM) without βL): 1.6 µM

**Q.** Which IC50 (read-out: IC50 (μM) with βL) does the source give for C-Mel Methyl Ester here?
**A.** Its IC50 is 0.0018 µM.

**Q.** And the IC50 (read-out: IC50 (μM) without βL)?
**A.** The IC50 was 0.65 µM.

**Q.** For C-Mel t-Butyl Ester, which IC50 (read-out: IC50 (μM) with βL) is on record?
**A.** Its IC50 is 2.1 µM.

**Q.** What about the IC50 (read-out: IC50 (μM) without βL) of the same compound?
**A.** Its IC50 is 32.3 µM.

**Q.** How did the IC50 [1] turn out when Glutaryl C-Mel was run?
**A.** The IC50 was 2.4 µM.

**Q.** And the IC50 (read-out: IC50 (μM) with βL)?
**A.** Its IC50 is 1.4 µM.

**Q.** What about the IC50 (read-out: IC50 (μM) without βL) of the same compound?
**A.** Its IC50 is 26.3 µM.

**Q.** What does the source list for Glutaryl C-Mel Cyclohexyl Ester?
**A.** IC50 [1]: 0.14 µM; IC50 (read-out: IC50 (μM) with βL): 0.087 µM; IC50 (read-out: IC50 (μM) without βL): 1.86 µM

**Q.** With Glutaryl C-Mel-D-Phe-NH2 as the compound, how does the IC50 (read-out: IC50 (μM) with βL) read?
**A.** The IC50 was 2.1 µM.

**Q.** What about the IC50 (read-out: IC50 (μM) without βL) of the same compound?
**A.** Its IC50 is 30 µM.

**Q.** How did the IC50 (read-out: IC50 (μM) with βL) turn out when Glutaryl C-Mel-L-Phe-NH2 was run?
**A.** The IC50 was 0.05 µM.

**Q.** And the IC50 (read-out: IC50 (μM) without βL)?
**A.** Its IC50 is 3.6 µM.

**Q.** Which IC50 (read-out: IC50) does the source give for “Mel-D-Glu(OMe)2 [Mel-D-Glu bis methyl ester]” here?
**A.** Its IC50 is 3.95 µM.

**Q.** How did the IC50 (read-out: IC50) turn out when Mel-Gly-nitrophenyl amide was run?
**A.** The IC50 was 1.01 µM.

**Q.** How did the IC50 (read-out: IC50) turn out when “Mel-L-Glu(OMe)2 [Mel-L-Glu bis methyl ester]” was run?
**A.** The IC50 was 1.89 µM.

**Q.** Mel-L-Met amide was tested. Which IC50 (read-out: IC50) did it give?
**A.** Its IC50 is 0.4 µM.

**Q.** How did the IC50 (read-out: IC50) turn out when Mel-L-Phe cyclohexyl amide was run?
**A.** The IC50 was 0.015 µM.

**Q.** For Mel-L-homoPhe-NH2, which IC50 (read-out: IC50) is on record?
**A.** Its IC50 is 0.09 µM.

**Q.** Which IC50 (read-out: IC50) does the source give for Mel-cyclohexyl amide here?
**A.** The IC50 was 1.57 µM.

**Q.** Which IC50 (read-out: IC50) does the source give for Mel-phenethyl amide here?
**A.** Its IC50 is 0.97 µM.

**Q.** With Mel-propargylalanine-NH2 as the compound, how does the IC50 (read-out: IC50) read?
**A.** The IC50 was 0.31 µM.

**Q.** With “Melphalan (2-trifluoromethyl)phenethyl ester” as the compound, how does the IC50 (read-out: IC50) read?
**A.** The IC50 was 3 µM.

**Q.** “Melphalan (4-cis-t-butyl) cyclohexyl ester [melphalan cis-4-t-butylcyclohexyl ester]” was tested. Which IC50 (read-out: IC50) did it give?
**A.** The IC50 was 13 µM.

**Q.** For “Melphalan (4-n-propyl)phenethyl ester [melphalan (4-butyl)phenethyl ester]”, which IC50 (read-out: IC50) is on record?
**A.** Its IC50 is 4.6 µM.

**Q.** For “Melphalan (4-trans-t-butyl) cyclohexyl ester”, which IC50 (read-out: IC50) is on record?
**A.** The IC50 was 3.6 µM.

**Q.** Melphalan Cyclobutyl Ester was tested. Which IC50 (read-out: IC50) did it give?
**A.** The IC50 was 0.2 µM.

**Q.** Melphalan Cyclohexyl Ester was tested. Which IC50 (read-out: IC50) did it give?
**A.** Its IC50 is 0.074 µM.

**Q.** Melphalan Cyclooctyl Ester was tested. Which IC50 (read-out: IC50) did it give?
**A.** Its IC50 is 5 µM.

**Q.** Which IC50 (read-out: IC50) does the source give for Melphalan Methyl Ester here?
**A.** Its IC50 is 0.054 µM.

**Q.** For Melphalan Phenethyl Ester, which IC50 (read-out: IC50) is on record?
**A.** The IC50 was 0.17 µM.

**Q.** For Melphalan t-Butyl Ester, which IC50 (read-out: IC50) is on record?
**A.** The IC50 was 3.34 µM.

**Q.** glutaryl C-Mel t-butyl ester was tested. Which IC50 (read-out: IC50 (μM) with βL) did it give?
**A.** Its IC50 is 2.3 µM.

**Q.** And the IC50 (read-out: IC50 (μM) without βL)?
**A.** The IC50 was 25 µM.

**Q.** How did the IC50 (read-out: IC50) turn out when melphalan amide was run?
**A.** The IC50 was 0.64 µM.

**Q.** How did the IC50 (read-out: IC50) turn out when melphalan anilide was run?
**A.** The IC50 was 1.2 µM.
